What all share (assay type): cell-based
Experiment [1] concerns the target T1, PPAR Alpha (Homo sapiens, UniProt Q07869).
T1 sequence (Q07869 1-468): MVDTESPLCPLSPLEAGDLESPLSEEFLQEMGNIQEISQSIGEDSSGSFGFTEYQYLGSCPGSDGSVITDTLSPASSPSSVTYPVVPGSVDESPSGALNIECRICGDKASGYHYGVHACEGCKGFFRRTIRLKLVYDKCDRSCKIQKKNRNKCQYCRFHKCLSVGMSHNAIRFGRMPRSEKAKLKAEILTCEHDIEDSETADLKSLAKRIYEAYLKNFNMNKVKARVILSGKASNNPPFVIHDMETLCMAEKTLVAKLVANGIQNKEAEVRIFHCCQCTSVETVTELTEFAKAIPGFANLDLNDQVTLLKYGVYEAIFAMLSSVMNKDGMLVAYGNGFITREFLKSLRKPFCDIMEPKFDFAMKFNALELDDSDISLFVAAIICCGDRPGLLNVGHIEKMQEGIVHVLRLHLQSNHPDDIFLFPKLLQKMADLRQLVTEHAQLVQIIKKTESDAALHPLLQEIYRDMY
The experiment in a line: PathHunter NHR protein interaction test, agonist mode, PPAR Alpha. The text has this:
(§1) Principles of in Vitro Test of PPAR Agonist Activity
(§2) Nuclear Hormone Receptor (NHR) Test
(§3) PathHunter's NHR protein interaction and nuclear transfer test are used to detect the activation ability of nuclear hormone receptor in a uniform, non-imaging experiment. This technology is called as enzyme fragment complementation […], and is developed by DiscoverX.
(§4) NHR protein test is based on the detection of the protein-protein interaction between a standard length of NHR protein in an activated state and a nuclear fusion protein containing a steroid receptor co-activating peptide (SRCP) region and one or more standard LXXLL acting sequences.
(§5) NHR is labeled on the ProLink™ component of an EFC test system, and the SRCP region and the enzyme receptor component (EA) are fused and expressed in the nucleus. When bound to the ligand, the NHR will transfer to the nucleus and obtain the SRCP region in which a complementary effect is produced, thereby generating an equivalent amount of activated-galactosidase (-Gal), accompanied by the generation of chemical light signals. The benefits associated with this pathway include reduced incubation time of the compound, direct test of an NHR target, use of human NHR sequences with a standard length, and selection of some new classes of compounds based on the disruption of protein-protein interactions.
(§6) The NHR NT test detected the transfer of an NHR between the cytoplasmic and nuclear compartments. The receptor was labeled on the ProLink™ component of the EFC test system, while the EA and nuclear sequence were fused, thereby limiting the expression of EA on the nucleus. Nucleus transfer leaded to the complementary effect with EA, thereby generating one equivalent of activated galactosidase (-Gal), accompanied by the generation of chemical light signals.
(§7) 1. PathHunter NHR cell strains were spread from a frozen stock in accordance with standard operations.
(§8) 2. Cells were seeded onto a 384-well white cell plate of 20 uL/well, and incubated at 37° C. for an appropriate time prior to test. The culture medium contained activated carbon dextran with filtered serum to reduce the level of hormone expression.
(§9) Experiments of Agonist Mode:
(§10) 1. As for the measurement of an agonist activity, it is required to incubate the cells with the compound to induce a response.
2. […]
(§11) 2. The chemiluminescence signals generated by the microplate were to be detected by a PerkinElmer Envision instrument.
(§12) 1. The activity of the compound was analyzed by CIBS data analysis software (ChemInnovation, CA).
(§13) 2. For experiments of agonist mode, the percentage activity is calculated by the following formula: % activity=100%×(the mean RLU of the compound to be tested−the mean background RLU of the medium)/(the mean of maximum control of the ligand−the mean background RLU of the medium)

Experiment [2] has as its target T2, PPAR Gamma (Homo sapiens, UniProt P37231).
T2 sequence (P37231 1-505): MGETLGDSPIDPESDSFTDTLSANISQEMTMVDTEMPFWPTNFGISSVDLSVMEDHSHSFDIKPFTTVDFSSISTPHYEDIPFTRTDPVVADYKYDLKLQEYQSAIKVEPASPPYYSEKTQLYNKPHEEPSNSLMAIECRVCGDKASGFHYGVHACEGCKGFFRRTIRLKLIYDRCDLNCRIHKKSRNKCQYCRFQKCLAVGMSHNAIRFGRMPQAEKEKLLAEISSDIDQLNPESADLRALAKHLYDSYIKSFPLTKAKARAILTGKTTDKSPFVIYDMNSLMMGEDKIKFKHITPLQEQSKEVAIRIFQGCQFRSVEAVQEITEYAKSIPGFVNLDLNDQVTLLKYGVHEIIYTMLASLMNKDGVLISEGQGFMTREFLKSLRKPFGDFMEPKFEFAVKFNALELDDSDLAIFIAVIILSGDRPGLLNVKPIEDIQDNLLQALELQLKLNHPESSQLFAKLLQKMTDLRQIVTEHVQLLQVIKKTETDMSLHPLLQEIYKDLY
The experiment in a line: PathHunter NHR protein interaction test, agonist mode, PPAR Gamma. Particulars: agonist mode.
Source text: as §1, §2, §3, §4, §5
The NHR NT test detected the transfer of an NHR between the cytoplasmic and nuclear compartments. […]
as §11, §12, §13

The target in experiment [3] is T3, PPAR Delta (Homo sapiens, UniProt Q03181).
T3 sequence (Q03181 1-441): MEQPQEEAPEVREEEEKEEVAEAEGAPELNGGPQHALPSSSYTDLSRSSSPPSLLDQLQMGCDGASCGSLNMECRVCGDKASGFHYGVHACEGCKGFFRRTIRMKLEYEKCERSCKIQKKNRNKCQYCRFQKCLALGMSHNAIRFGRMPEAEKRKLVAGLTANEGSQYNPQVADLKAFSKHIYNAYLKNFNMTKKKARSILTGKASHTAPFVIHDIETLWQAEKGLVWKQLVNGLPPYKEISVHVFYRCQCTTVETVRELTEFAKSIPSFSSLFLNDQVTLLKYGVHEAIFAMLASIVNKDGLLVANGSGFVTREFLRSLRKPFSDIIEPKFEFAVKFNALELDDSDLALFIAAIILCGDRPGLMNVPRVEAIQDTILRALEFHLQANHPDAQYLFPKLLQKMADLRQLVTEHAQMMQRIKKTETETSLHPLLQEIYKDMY
The experiment in a line: PathHunter NHR protein interaction test, agonist mode, PPAR Delta.
Source text: as §1, §2, §3, §4, §5, §6, §7, §8, §9, §10
2. […]
as §11, §12, §13

In general, EC50 refers to the concentration giving half of the maximal effect.

As to `CSc1ccc(C(=O)/C=C/c2cc(C)c(OC(C)(C)C(=O)O)c(C)c2)cc1` [GFT-505, Elafibranor, reference compound], the concentration for a half-maximal effect (EC50) in experiment [1] (agonist mode) and in experiment [2] was above 0.25 µM each time.

With `CC(C)(Sc1ccc(CCN(CCCCC2CCCCC2)C(=O)NC2CCCCC2)cc1)C(=O)O` [GW7647, reference compound], the “PPAR Alpha Maximum stimulus-response value” in experiment [1] (reference agonist, set as 100%) turned out to be 100%.

`CCCc1c(OCCCOc2ccc(OCC(=O)O)cc2)ccc(C(C)=O)c1O` [L-165,041, reference compound] showed an EC50 in experiment [3] (agonist mode) below 0.1 µM. For the same compound, in experiment [3] (reference agonist, set as 100%), the “PPAR Delta Maximum stimulus-response value” is 100%.

The record behind these values is US11396493B2, “Amorphous pyrrolidine derivative as PPAR agonist and preparation method thereof” (GUANGDONG RAYNOVENT BIOTECH CO., LTD., priority 2017, dated 2022).
